Test results reported in PMC2829539, “Unchanged triclabendazole kinetics after co-administration with ivermectin and methimazole: failure of its therapeutic activity against triclabendazole-resistant liver flukes” (BMC Veterinary Research, 2010).
Where “and” joins values, the source holds several entries; their conditions need not be identical. Equal entries are not always repeated.

Columns and labels:
[1] = design: method as in Alvarez et al., 2008; details: ref Alvarez et al., 2008, cited from earlier work
[2] = Plasma disposition kinetics of TCBZ metabolites in F. hepatica-infected sheep (HPLC, non-compartmental analysis); format: in vivo; details: for AUC0-∞ / AUC0-t / Cmax / MRT (mean residence time) / T1/2el (elimination half-life) / T1/2for (formation half life) / Tmax: in vivo, 10 mg/kg; for Time metabolites were recovered in plasma post-treatment: sheep plasma, both treated groups, last sampling time 144 h; for AUC0-t / Cmax / MRT (mean residence time) / T1/2el (elimination half-life) / T1/2for (formation half life) / Tmax: sheep
Protocol: (§1) Animals were each orally infected with eighty (80) metacercariae of a TCBZ-resistant F. hepatica isolate, named Sligo. For details of the history of the Sligo isolate, see previous works. Sixteen weeks after infection, animals were randomly distributed into three experimental groups (n = 4 each): Group I, which represented the untreated control group; Group II, in which animals were treated with TCBZ (Fasinex®, Novartis) by the i.r. route at 10 mg/kg dose rate; and Group III, in which animals were simultaneously treated with TCBZ (Fasinex®, Novartis) by the i.r. route (10 mg/kg) and IVM (Ivosint®, Biogénesis) by the s.c. route (0.2 mg/kg, internal face of the thigh). Additionally, animals in Group III were treated by the intramuscular (i.m.) route (Semitendinosus muscle) with MTZ (2.5% aqueous solution) at a dose rate of 1.5 mg/kg. MTZ administration was performed 30 min after TCBZ/IVM treatment. Blood samples (5 ml) were taken by jugular venipunctures into heparinised Vacutainers® tubes (Becton Dickinson, USA) before administration (time 0) and at 1, 3, 6, 9, 12, 18, 24, 30, 36, 48, 72, 96, 120 and 144 h post-treatment. Plasma was separated by centrifugation at 3000 g for 15 min, placed into plastic tubes and frozen at -20°C until analyzed by high performance liquid chromatography (HPLC).
TCBZ and its metabolites were extracted from plasma as previously described. Samples (1 ml) were spiked with 10 μl of oxibendazole (OBZ) (100 μg/ml), used as internal standard. After addition of 2 ml of acetonitrile, samples were shaken for 20 min (multivortex) and then centrifuged at 2500 g for 15 min. The supernatants were recovered and evaporated to dryness in a vacuum concentrator (Speed-Vac®, Savant, Los Angeles, USA). The dry extracts were reconstituted in 300 μl of mobile phase and an aliquot of 50 μl was injected into the HPLC system.
Experimental and fortified plasma samples were analysed by HPLC to determine the concentration of TCBZ and its metabolites following the methodology previously described. The elution from the stationary phase (Selectosil C18 column, 5 μm, 250 × 4.6 mm, Phenomenex®, CA, USA) was carried out at a flow rate of 1.2 ml/min, using a mixture of acetonitrile/ammonium acetate (0.025 M, pH 6.6) as mobile phase. Fifty μl of each previously extracted sample were injected into a Shimadzu 10 A HPLC System (Kyoto, Japan), using a gradient pump, UV detector set at 300 nm, an autosampler and a controller (Shimadzu Class LC10, Kyoto, Japan). Analytes were identified by the retention times of pure reference standards. Chromatographic retention times were: 4.09 (OBZ), 5.91 (TCBZ.SO), 7.95 (TCBZ.SO2) and 10.36 (TCBZ) min. […] The absolute recovery of drug analytes from plasma was calculated by comparison of the peak areas from spiked plasma samples with the peak areas resulting from direct injections of standards in mobile phase. Mean absolute recoveries and coefficient of variations (CV) within the concentration range between 0.1 and 25 μg/ml (triplicate determinations) were 89.2% (CV: 6.74%) (TCBZ), 87.1% (CV: 6.03%) (TCBZ.SO) and 90.1% (CV: 4.75%) (TCBZ.SO2). Precision (intra- and inter-assay) was determined by analysing replicates of fortified plasma samples (n = 5) with each compound at three different concentrations (0.1, 5 and 10 μg/ml). CV ranged from 2.54 to 14.6%. The limit of quantification (LOQ) was defined as the lowest measured concentration with a CV <20% and accuracy of ±20% and an absolute recovery ≥70%. The LOQ defined for the three molecules assayed was 0.1 μg/ml. Values below LOQ were not included in the pharmacokinetic analysis.
The concentration versus time curves for TCBZ metabolites in plasma for individual animals were fitted with the PKSolutions™ computer program/programme (Summit Research Service, Ashland, USA). Pharmacokinetic analysis of the experimental data was performed by non-compartmental analysis. […]

[3] = system: TCBZ-resistant F. hepatica (Sligo isolate); assay: Clinical efficacy study: fluke counts 15 days after treatment; format: in vivo, Fasciola hepatica
Protocol: as §1
Fifteen days after treatment all animals were stunned and exsanguinated immediately. Adult F. hepatica specimens were recovered from the common bile ducts and the gall bladder of each sheep and counted according to the World Association for the Advancement of Veterinary Parasitology (W.A.A.V.P) guidelines. The efficacy of each anthelmintic treatment was determined by the comparison of F. hepatica burdens in treated versus untreated animals. The following equation expresses the percent efficacy (% E) of a drug treatment against F. hepatica (F.h.) in a single treatment group (T) when compared with an untreated control (C). [drawing 1]
The geometric mean was used as it most accurately represents the distribution of parasite populations within each group.

Compound	Initial plasma concentration ([1]; after i.v. administration)	Peak plasma concentration ([1]; after s.c. administration at the same dose rate)	Share of the total analytes found in sheep plasma ([2]; after i.r. administration of TCBZ)	AUC0-∞ [2]	Time metabolites were recovered in plasma post-treatment [2]	AUC0-t [2]	Cmax [2]	MRT (mean residence time) [2]	T1/2el (elimination half-life) [2]	T1/2for (formation half life) [2]	Tmax [2]	Individual fluke counts ([3]; sheep infected with 80 metacercariae, treated 16 weeks after infection, counted 15 days post-treatment, one value per animal (n = 4))	Arithmetic mean fluke count ([3]; sheep, 15 days post-treatment, n = 4, untreated control 13.25)	Clinical efficacy ([3]; sheep, 15 days post-treatment, versus untreated control, calculated using geometric means)
CC[C@H](C)[C@H]1O[C@]2(CC[C@@H]1C)C[C@@H]1C[C@@H](C/C=C(\C)[C@@H](O[C@H]3C[C@H](OC)[C@@H](O[C@H]4C[C@H](OC)[C@@H](O)[C@H](C)O4)[C@H](C)O3)[C@@H](C)/C=C/C=C3\CO[C@@H]4[C@H](O)C(C)=C[C@@H](C(=O)O1)[C@]34O)O2 [IVM, ivermectin]	281.2 ± 32.6 ng/mL	21.3 ± 13.3 ng/mL	–	–	–	–	–	–	–	–	–	–	–	–
C[S+]([O-])c1nc2cc(Oc3cccc(Cl)c3Cl)c(Cl)cc2[nH]1 (stereo not shown) [TCBZ.SO, triclabendazole sulphoxide]	–	–	42%	661.5 ± 148.5 µg·h/mL	up to 144 h	653.9 ± 140.6 µg·h/mL	14000 ± 850 ng/mL	38.8 ± 10.5 h	17.5 ± 8.45 h	6.85 ± 2.18 h	22.5 ± 7.55 h	–	–	–
CS(=O)(=O)c1nc2cc(Oc3cccc(Cl)c3Cl)c(Cl)cc2[nH]1 [TCBZ.SO2, triclabendazole sulphone]	–	–	–	917.9 ± 270.6 µg·h/mL	up to 144 h	868.2 ± 217.6 µg·h/mL	13500 ± 1680 ng/mL	61.3 ± 17.2 h	26.8 ± 10.9 h	12.3 ± 2.90 h	39.0 ± 6.00 h	–	–	–
CSc1nc2cc(Cl)c(Oc3cccc(Cl)c3Cl)cc2[nH]1 [TCBZ alone, 6-chloro-5(2-3 dichlorophenoxy)-2-methyl thio-benzimidazole]	–	–	–	–	–	–	–	–	–	–	–	2 and 12 and 8 and 5	6.75	56%
